Assay results reported in ChEMBL document CHEMBL4507268 (2021).

Key:
Conditions in all cases: Compound concentration 1.0 uM
[1] = molecular target: T1, Serine/threonine-protein kinase TAO3 (Homo sapiens) (UniProt Q9H2K8)
T1 sequence (whole entry): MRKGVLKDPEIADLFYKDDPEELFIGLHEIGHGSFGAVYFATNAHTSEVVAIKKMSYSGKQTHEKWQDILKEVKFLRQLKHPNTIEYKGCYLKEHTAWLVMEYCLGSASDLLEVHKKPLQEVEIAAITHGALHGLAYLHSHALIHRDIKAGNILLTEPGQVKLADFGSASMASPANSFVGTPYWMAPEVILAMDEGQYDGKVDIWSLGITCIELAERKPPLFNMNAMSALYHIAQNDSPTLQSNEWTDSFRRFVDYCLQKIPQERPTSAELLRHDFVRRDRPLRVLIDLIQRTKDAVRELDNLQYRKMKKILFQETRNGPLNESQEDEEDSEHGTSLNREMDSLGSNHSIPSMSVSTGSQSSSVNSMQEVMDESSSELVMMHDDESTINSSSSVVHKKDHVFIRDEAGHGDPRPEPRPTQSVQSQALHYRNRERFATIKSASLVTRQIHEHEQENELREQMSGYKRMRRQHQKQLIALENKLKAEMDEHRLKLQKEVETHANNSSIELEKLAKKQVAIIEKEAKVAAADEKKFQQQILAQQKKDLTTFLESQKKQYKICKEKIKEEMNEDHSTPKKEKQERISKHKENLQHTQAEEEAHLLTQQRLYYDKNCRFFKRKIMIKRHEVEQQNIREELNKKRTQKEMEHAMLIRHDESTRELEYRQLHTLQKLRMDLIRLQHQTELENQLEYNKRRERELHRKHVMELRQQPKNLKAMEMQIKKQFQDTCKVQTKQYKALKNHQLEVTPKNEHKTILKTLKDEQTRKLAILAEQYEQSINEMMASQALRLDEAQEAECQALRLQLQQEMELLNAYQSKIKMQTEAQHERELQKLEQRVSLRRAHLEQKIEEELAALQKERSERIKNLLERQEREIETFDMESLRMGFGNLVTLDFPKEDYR

[2] = molecular target: CDK6/cyclin D3 (Homo sapiens) (UniProt P30281+Q00534)
[3] = molecular target: T2, Activin receptor type-1 (Homo sapiens) (UniProt Q04771)
T2 sequence (whole entry): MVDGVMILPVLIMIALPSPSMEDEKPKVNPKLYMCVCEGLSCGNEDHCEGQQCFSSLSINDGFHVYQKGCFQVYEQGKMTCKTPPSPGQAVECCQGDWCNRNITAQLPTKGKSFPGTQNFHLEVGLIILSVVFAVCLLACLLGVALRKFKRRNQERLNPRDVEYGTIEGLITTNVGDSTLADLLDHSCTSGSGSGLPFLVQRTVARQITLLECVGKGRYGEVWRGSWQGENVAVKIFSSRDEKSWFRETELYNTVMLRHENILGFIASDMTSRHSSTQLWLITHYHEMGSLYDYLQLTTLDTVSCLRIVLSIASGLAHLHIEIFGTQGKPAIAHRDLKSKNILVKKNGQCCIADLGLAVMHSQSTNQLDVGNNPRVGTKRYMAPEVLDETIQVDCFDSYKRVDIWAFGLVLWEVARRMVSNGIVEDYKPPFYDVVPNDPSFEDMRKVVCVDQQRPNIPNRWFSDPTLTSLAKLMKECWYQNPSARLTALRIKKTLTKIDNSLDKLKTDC

[4] = molecular target: T3, Serine/threonine-protein kinase ULK2 (Homo sapiens) (UniProt Q8IYT8)
T3 sequence (whole entry): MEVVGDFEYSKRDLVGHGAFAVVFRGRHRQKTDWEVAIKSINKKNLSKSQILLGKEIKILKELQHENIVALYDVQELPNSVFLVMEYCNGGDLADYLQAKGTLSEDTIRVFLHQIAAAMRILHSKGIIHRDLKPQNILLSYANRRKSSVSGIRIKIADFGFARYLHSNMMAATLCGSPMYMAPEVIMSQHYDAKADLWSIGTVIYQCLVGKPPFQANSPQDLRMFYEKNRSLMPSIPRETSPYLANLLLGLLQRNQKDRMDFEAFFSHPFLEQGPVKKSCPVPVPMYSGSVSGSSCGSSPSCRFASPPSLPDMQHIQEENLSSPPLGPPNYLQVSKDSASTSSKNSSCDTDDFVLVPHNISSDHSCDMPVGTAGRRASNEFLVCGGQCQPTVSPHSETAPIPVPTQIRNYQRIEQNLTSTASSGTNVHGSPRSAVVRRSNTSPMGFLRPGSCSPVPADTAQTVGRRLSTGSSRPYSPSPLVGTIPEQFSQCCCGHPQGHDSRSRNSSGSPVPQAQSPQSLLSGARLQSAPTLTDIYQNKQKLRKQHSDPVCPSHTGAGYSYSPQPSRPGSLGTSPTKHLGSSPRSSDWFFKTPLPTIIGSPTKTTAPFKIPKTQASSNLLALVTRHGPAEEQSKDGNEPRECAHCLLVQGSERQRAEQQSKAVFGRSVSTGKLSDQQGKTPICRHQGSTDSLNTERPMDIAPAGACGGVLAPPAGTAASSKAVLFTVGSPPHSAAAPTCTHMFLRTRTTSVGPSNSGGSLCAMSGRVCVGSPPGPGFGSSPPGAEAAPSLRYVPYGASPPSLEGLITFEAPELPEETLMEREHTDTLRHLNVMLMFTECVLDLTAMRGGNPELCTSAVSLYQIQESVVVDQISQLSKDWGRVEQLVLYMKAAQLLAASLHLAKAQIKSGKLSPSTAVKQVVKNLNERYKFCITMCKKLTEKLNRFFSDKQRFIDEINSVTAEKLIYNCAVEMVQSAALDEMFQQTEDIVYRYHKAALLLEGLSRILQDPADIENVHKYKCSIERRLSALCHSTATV

[5] = molecular target: Receptor-interacting serine/threonine-protein kinase 2 (Homo sapiens) (UniProt O43353)

Measured: % residual kinase activity

Chain of Receptor-interacting serine/threonine-protein kinase 2 (Homo sapiens) (O43353 whole entry): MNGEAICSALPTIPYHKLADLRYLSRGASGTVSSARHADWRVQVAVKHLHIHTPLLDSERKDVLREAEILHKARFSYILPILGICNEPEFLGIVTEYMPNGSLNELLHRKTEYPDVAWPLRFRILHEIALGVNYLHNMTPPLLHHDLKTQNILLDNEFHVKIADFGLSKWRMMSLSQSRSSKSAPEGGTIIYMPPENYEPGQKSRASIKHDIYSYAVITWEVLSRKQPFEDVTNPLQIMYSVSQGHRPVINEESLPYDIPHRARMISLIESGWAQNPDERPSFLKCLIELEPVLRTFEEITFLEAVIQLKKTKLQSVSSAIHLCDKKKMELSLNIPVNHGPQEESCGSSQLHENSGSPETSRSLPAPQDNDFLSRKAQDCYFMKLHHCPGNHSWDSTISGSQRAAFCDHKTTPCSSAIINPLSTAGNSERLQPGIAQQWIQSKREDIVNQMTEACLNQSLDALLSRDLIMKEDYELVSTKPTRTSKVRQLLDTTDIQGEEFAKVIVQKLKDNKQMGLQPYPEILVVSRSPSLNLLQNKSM

CN1CCN(c2cnc3c(C4CCN(C(=O)c5ccc(OC(F)(F)F)cc5N)CC4)ncnc3c2)CC1 [BAY-885]
inactive: [1] 110% | [2] 96% | [3] 98% | [4] 102% | [5] 101%
